Results taken from US20170318812A1, “Plant and Crop Growth Regulating/Biostimulant Formulations and Methods of Use” (Arysta Lifescience North America, LLC, priority 2014, published 2017).
Where “and” joins values, the source holds several entries; their conditions need not be identical. Equal entries are not always repeated.

How the values were obtained:
Assay type in all cases: in vivo
[1] = test system: GLXMA Glycine max (Soybean); experiment: Ipfencarbazone biostimulant effect, early post emergence foliar application, greenhouse pots, plant height: soybean; settings: 28 DA-A; for Plant HEIGHT, Mean / Plant HEIGHT, single plots: Soybean BMXPOTENCIA
From the text: (§1) The original objective of this Example was to evaluate the herbicidal effect of ipfencarbazone when applied as a post emergent treatment to a range of selected crops and weeds. Unexpectedly, crop plant growth stimulation was observed. The actual species of weeds and crops are listed in the summary data tabulated below and in FIGS. 1-13. By convention each plant species has a Bayer code (5-letter name) with the scientific name for the plant referenced in FIGS. 1-13. In each Figure, each tray contains the same configuration of weeds and/or crops. In each Figure there is one replication of each treatment (six treatments in total). The top three photographs in each Figure show the Bayer Codes and bottom three photographs are aligned with the top three facilitating viewing of the same plant species. Throughout the Examples various abbreviations as conventional shorthand notation and will be appreciated by those skilled in the art. Some exemplary abbreviations include, “CV”=Co-efficient of Variation,” “LSD”=Least Significant Difference” (G/L (gram per L) AND GA/L (gram of active ingredient per L); “SC”=suspension concentrate formulation. The diluent in all treatments was water. By convention factors that are identical in all treatments (e.g. diluent and surfactant) are not listed in each treatment.
(§2) Methods: The indicated size pots (see Tables below) are filled with a specific soil, the soil properties being indicated below. The referenced crops and weeds are planted by hand in each pot. […] The experiments include six treatments each replicated three times on each crop/weed species. At a specific time after emergence each crop and weed species was treated with ipfencarbazone plus a non-ionic surfactant (NIS). In the present Example, the surfactant employed was ENERGIC™ (non-ionic surfactant). The application timing is indicated in each of the Tables (1 or 2 leaf stage) below. Ipfencarbazone plus surfactant was diluted in water and applied at a rate equivalent to about 250 L/ha. Ipfencarbazone was applied using a track sprayer. After treatment, the pots were randomized in a greenhouse. At each assessment (indicated by “days after treatment” or DAT) the height of each plant was measured. The letters next to each mean indicate the level of statistical significance.
(§3) Replications: 3, Untreated treatments: 1, Design: Randomized Complete Block (RCB), Treatment units: Treated ‘Plot’ experimental unit size, Dry Form. Unit: %, Treated ‘Plot’ experimental unit size Width: 1 meter, Treated ‘Plot’ experimental unit size Length: 1.4 meters, Application volume: 250 L/ha, Mix size: 0.15 liters, […]

[2] = test system: BRADC Brachiaria decumbens (Surinam grass); experiment: Ipfencarbazone biostimulant effect, early post emergence foliar application, greenhouse pots, plant height: Surinam grass; settings: for HEIGHT, percent of untreated check (APoC) / HEIGHT, treatment mean: BRADC BASILISK; for Plant HEIGHT, Mean / Plant HEIGHT, single plots: Surinam grass BASILISK
From the text: as §1, §2, §3

selected crops and weeds = experiment: Post emergent treatment of a range of selected crops and weeds (FIGS. 1-13), measured and visual observation
From the text: as §1, §2

[3] = GLXMA BMXPOTENCIA, 1000 g ai/ha
[4] = 62.5 g ai/ha + Energic NIS 0.2 % v/v
[5] = 125 g ai/ha + Energic NIS 0.2 % v/v
[6] = 250 g ai/ha + Energic NIS 0.2 % v/v
[7] = 1000 g ai/ha + Energic NIS 0.2 % v/v
[8] = 15 DA-A, 62.5 g ai/ha + Energic NIS 0.2 % v/v
[9] = 15 DA-A, 125 g ai/ha + Energic NIS 0.2 % v/v
[10] = 15 DA-A, 500 g ai/ha + Energic NIS 0.2 % v/v
[11] = 28 DA-A, 62.5 g ai/ha + Energic NIS 0.2 % v/v
[12] = 28 DA-A, 125 g ai/ha + Energic NIS 0.2 % v/v
[13] = 28 DA-A, 250 g ai/ha + Energic NIS 0.2 % v/v
[14] = 28 DA-A, 500 g ai/ha + Energic NIS 0.2 % v/v

## CC(C)N(C(=O)n1cnn(-c2ccc(Cl)cc2Cl)c1=O)c1ccc(F)cc1F [ARY-0572-001, ipfencarbazone]
[1]; [3]
  HEIGHT, percent of untreated check (APoC): (71.3%)
  HEIGHT, treatment mean: 14.9 bc cm
[1]; [4]
  Plant HEIGHT, Mean: 30.6 cm
  Plant HEIGHT, single plots: 32.7 cm and 29.3 cm and 29.7 cm
[1]; [5]
  Plant HEIGHT, Mean: 23.8 cm
  Plant HEIGHT, single plots: 20.7 cm and 22.7 cm and 28.0 cm
[1]; [6]
  Plant HEIGHT, Mean: 18.3 cm
  Plant HEIGHT, single plots: 20.3 cm and 21.7 cm and 13.0 cm
[1]; 500 g ai/ha + Energic NIS 0.2 % v/v
  Plant HEIGHT, Mean: 13.2 cm
[1]; [7]
  Plant HEIGHT, Mean: 14.9 cm
  Plant HEIGHT, single plots: 9.0 cm and 18.0 cm and 17.7 cm
[2]; 62.5 g ai/ha, 15 DA-A
  HEIGHT, percent of untreated check (APoC): (167.8%)
  HEIGHT, treatment mean: 33.8 a cm
[2]; 62.5 g ai/ha, 28 DA-A
  HEIGHT, percent of untreated check (APoC): (164.1%)
  HEIGHT, treatment mean: 55.4 bc cm
[2]; 125 g ai/ha, 15 DA-A
  HEIGHT, percent of untreated check (APoC): (139.1%)
  HEIGHT, treatment mean: 28.1 ab cm
[2]; 125 g ai/ha, 28 DA-A
  HEIGHT, percent of untreated check (APoC): (146.7%)
  HEIGHT, treatment mean: 49.6 cd cm
[2]; 250 g ai/ha, 15 DA-A
  HEIGHT, percent of untreated check (APoC): (141.3%)
  HEIGHT, treatment mean: 28.5 ab cm
[2]; 250 g ai/ha, 28 DA-A
  HEIGHT, percent of untreated check (APoC): (233.6%)
  HEIGHT, treatment mean: 78.9 a cm
[2]; 500 g ai/ha, 15 DA-A
  HEIGHT, percent of untreated check (APoC): (93.1%)
  HEIGHT, treatment mean: 18.8 bc cm
[2]; 500 g ai/ha, 28 DA-A
  HEIGHT, percent of untreated check (APoC): (210.5%)
  HEIGHT, treatment mean: 71.1 ab cm
[2]; 1000 g ai/ha, 15 DA-A
  HEIGHT, percent of untreated check (APoC): (54.0%)
  HEIGHT, treatment mean: 10.9 c cm
[2]; 1000 g ai/ha, 28 DA-A
  HEIGHT, percent of untreated check (APoC): (74.0%)
  HEIGHT, treatment mean: 25.0 e cm
[2]; [8]
  Plant HEIGHT, Mean: 33.8 cm
  Plant HEIGHT, single plots: 26.8 cm and 44.7 cm and 30.0 cm
[2]; [9]
  Plant HEIGHT, Mean: 28.1 cm
  Plant HEIGHT, single plots: 27.8 cm and 23.7 cm and 32.7 cm
[2]; 15 DA-A, 250 g ai/ha + Energic NIS 0.2 % v/v
  Plant HEIGHT, Mean: 28.5 cm
[2]; [10]
  Plant HEIGHT, Mean: 18.8 cm
  Plant HEIGHT, single plots: 21.3 cm and 13.7 cm
[2]; 15 DA-A, 1000 g ai/ha + Energic NIS 0.2 % v/v
  Plant HEIGHT, Mean: 10.9 cm
[2]; [11]
  Plant HEIGHT, Mean: 55.4 cm
  Plant HEIGHT, single plots: 48.3 cm and 76.0 cm and 42.0 cm
[2]; [12]
  Plant HEIGHT, Mean: 49.6 cm
  Plant HEIGHT, single plots: 53.0 cm and 44.7 cm and 51.0 cm
[2]; [13]
  Plant HEIGHT, Mean: 78.9 cm
  Plant HEIGHT, single plots: 89.7 cm and 91.7 cm and 55.3 cm
[2]; [14]
  Plant HEIGHT, Mean: 71.1 cm
  Plant HEIGHT, single plots: 67.3 cm and 77.0 cm and 69.0 cm
[2]; 28 DA-A, 1000 g ai/ha + Energic NIS 0.2 % v/v
  Plant HEIGHT, Mean: 25.0 cm
Selected crops and weeds; about 60 to about 125 grams per hectare, corn, wheat, soybean and dry bean seedlings
  effect on crop plant seedlings (growth): positive effect
Selected crops and weeds; applied post emergent, all crop and weed species evaluated, all use rates
  impact on plant growth: significant, positive impact on plant growth
Selected crops and weeds; early post treatment, wheat, sorghum, corn, soybean, dry bean and cotton
  growth rate (biomass, leaf area, plant height): meaningful increase in growth rate
Selected crops and weeds; higher rates, 500 and 1000 g a.i./ha, specific crops and weeds
  herbicidal effect: some herbicidal effect
Selected crops and weeds; treated plants compared to the untreated control
  plant color (visual observation): significant greening effect
